Assay results as given in patent publication US20220380341A1, “INHIBITORS OF HIV-1 NEF FOR THE TREATMENT OF HIV DISEASE” (priority 2018, published 2022).
Where two headings read alike, the source gives them in different places.

Columns and labels:
HIV-1NL4-3 = assay: HIV-1 infectivity assay in TZM-bl reporter cell line (LTR-luciferase, 48 h); format: cell-based; conditions: Human immunodeficiency virus 1, TZM-bl
How it was run: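 Percent inhibition of HIV-1NL4-3 infectivity at 1 μM compound, from luciferase output of TZM-bl cells 48 h after infection. Scale anchors are DMSO-treated wild-type infection as zero and DMSO-treated Nef-defective infection as full Nef-dependent effect.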

TZM-bl cell line = format: cell-based; conditions: human, 1 μM
How it was run: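 Nef-dependent infectivity in TZM-bl cells: HIV-1NL4-3 infection with 1 μM compound, luciferase read at 48 h, normalized against DMSO wild-type and Nef-defective controls. Compound cytotoxicity in uninfected cells measured by Cell Titer Blue.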

HIV-1 NefNL4-3 = HIV-1 NefNL4-3 (Human immunodeficiency virus type 1 group M subtype B, UniProt P03406, A33V/T15A/T51N/V11I); assay: Surface plasmon resonance binding to recombinant full-length Nef (NL4-3); conditions: for T, minutes (residence time): 2-step induced fit, T = 1/koff2; for RU30/RUNef (extent of binding): response units at 30 μM relative to Nef immobilized on the SPR chip
HIV-1 Nef SF2 = biological target: T1, HIV-1 Nef SF2 (Human immunodeficiency virus type 1 group M subtype B, UniProt P03407); assay: biochemical; format: binding; conditions: two-step induced-fit model, Reichert SPR, read-out: Reichert SPR Nef SF2 (M) two-step fitting
T1 construct: made in house

[1] = biological target: Nef from SIV (strain mac239) (Simian immunodeficiency virus, UniProt Q5QGG3); assay: biochemical
Experimental: Also shown are SPR data recorded on a Reichert 4-channel SPR instrument. […] Recombinant Nef is immobilized on the biosensor surface, and each compound is injected and association/dissociation kinetics are recorded. The resulting data for the 3 isoforms are each best-fit using both a two-site model and a two-step, induced-fit model. Dissociation constants (KD), calculated from the kinetic association and dissociation constants from all three isoforms, are shown in columns 6-7. Data were fit using three regimes and the resulting KD: from each model are shown in the Table: 1:1 Langmuir fit; 2-site fit, which yields low and high affinity components; and a 2-step induced fit model.

HIV-1 NL4-3 = assay: HIV-1 replication in normal donor PBMCs (p24 Gag AlphaLISA); format: cell-based
Experimental: FIG. 4. Inhibition of HIV-1 replication by compounds disclosed herein in PBMCs. Donor PBMCs were infected with HIV-1 in the presence of inhibitor concentrations ranging from 1 to 1,000 nM or the DMSO carrier solvent as a negative control (0.1% DMSO final). Replication was assessed by p24 Gag AlphaLISA (Perkin Elmer) […]. Each donor was also infected with Nef-defective HIV-1 to establish the baseline for Nef-dependent enhancement of replication in each culture. Cytotoxicity was assessed in uninfected PBMCs over the same incubation period using the CellTiter-Blue assay (Promega). Data were fit by non-linear regression analysis (GraphPad Prism v.7.04) to determine the IC50 and CC50 values shown.
The tables also show data for HIV-1 Replication in normal donor peripheral blood mononuclear cells (PBMCs), which is assay is conducted as follows:
Non-HLA-typed buffy coats (Source: Pittsburgh Central Blood Bank, #E3755) are received and processed within 24 hours of blood donation. PBMCs are isolated via rocking for RBC separation following 1:1 dilution with PBS, followed by Ficoll gradient centrifugation. The lymphocyte fraction is removed and washed several times for a final concentration of ˜150-300×10^6 cells per donor. Cells are activated for 3 days with 1-5 μg/mL PHA (Sigma) and 50 U/mL IL-2. Cells are plated at 750,000 cells/ml and viability is checked at day 3 using the Cell Titer Blue assay (Promega). If cells are >90% viable, then they are infected with HIV-1 NL4-3, wild-type or Δ-Nef mutant (input typically 30-500 pg/mL p24 capsid equivalents) in the presence or absence of Nef inhibitor analogs. IL-2 is included in the media at the time of infection. After 4 days, cells are lysed with 1% Triton X-100 for 1.5 h, checked for viability via Cell Titer Blue, and frozen/stored at −20° C. HIV-1 replication is assessed with a high-sensitivity HIV-1 p24 AlphaLISA assay (Perkin Elmer) in ½-volume 96-well plates, using one-half of the recommended assay volumes for all reagents (including samples). Assays are read on the BioTek Cytation5 instrument; readout is in AlphaUnits and replication in p24 pg/mL is determined using an HIV-1 p24 capsid protein standard included in the Alpha kit.

[2] = 1.0 μM, TZM-bl reporter cell line, Table 4, read-out: % Infectivity Inhibition
[3] = 1 μM, TZM-bl, normalized: DMSO wild-type HIV-1 = 0%, Nef-defective HIV-1 = 100%, read-out: HIV-1 Infectivity % Inhibition norm. to Δ-Nef @ 1 μM
[4] = 48 h, Table 1, TZM-bl cells, 1 μM, 48 h, 100% = Nef-defective HIV-1, read-out: HIV-1 Infectivity % Inhibition Norm. to Δ-Nef @ 1 μM
[5] = KD, M, Table 4, SPR fit 2-step induced fit, KD = koff/kon × koff2/(koff2 + kon2)
[6] = Nef NL4-3 Binding, SPR 2-state fitting KD, Table 1, 2-step induced-fit model
[7] = Reichert SPR Nef NL43 (M) two-step fitting, KD, two-step induced-fit model, Reichert SPR, Table 3
[8] = read-out: Nef NL4-3 Binding, SPR 1:1 or 2-site fitting KD2, Table 1, 2-site fit, second component

Row | Structure (SMILES) | inhibition at 1 µM (HIV-1NL4-3; [2]) [%] | inhibition at 1 µM (HIV-1NL4-3; [3]) [%] | inhibition at 1 µM (HIV-1NL4-3; [4]) [%] | % Cell Viability (TZM-bl cell line) [%] | Percent Viability @ 1 μM (TZM-bl cells) (TZM-bl cell line) [%] | Kd (HIV-1 NefNL4-3) [M] | Kd (HIV-1 NefNL4-3; [5]) [M] | Kd (HIV-1 NefNL4-3; [6]) [M] | Kd (HIV-1 NefNL4-3; [7]) [M] | T, minutes (residence time) (HIV-1 NefNL4-3; Table 4) | Kd (HIV-1 NefNL4-3; [8]) [M] | RU30/RUNef (extent of binding) (HIV-1 NefNL4-3) | Kd (HIV-1 Nef SF2) [M] | Kd [1] [nM] | HIV Replication PBMC IC50 vs. HIV NL4-3 (HIV-1 NL4-3; Table 1, 4 days, words (Not active, Borderline) where no bound is given) | Kd (HIV-1 NefNL4-3; Nef NL4-3 Binding, SPR 1:1 or 2-site fitting KD2, Table 1, 2-site fit, second component) [M] | inhibition at 1 µM (HIV-1NL4-3; 48 h, Table 2, TZM-bl cells, 1 μM, 48 h, 100% = Nef-defective HIV-1, read-out: HIV-1 Infectivity % Inhibition Norm. to Δ-Nef @ 1 μM) [%] | Kd (HIV-1 NefNL4-3; Nef NL4-3 Binding, SPR 2-state fitting KD, Table 2, 2-step induced-fit model) [M] | Kd (HIV-1 NefNL4-3; read-out: Nef NL4-3 Binding, SPR 1:1 or 2-site fitting KD2, Table 2, 2-site fit, second component) [M] | IC50 (HIV-1 NL4-3; Human immunodeficiency virus 1, NL43, PBMC, 96 h, Table 2, 4 days) [nM]
1 | Oc1c(CC2CCOCC2)c(-c2ccc(F)cc2)nn1-c1nc2ccccc2[nH]1 [Compound I-151, 1-(1H-1,3-benzodiazol-2-yl)-3-(4-fluorophenyl)-4-[(oxan-4-yl)methyl]-1H-pyrazol-5-ol] | 100 | 106 | 106 | 83.0 | 83.0 | 5.34e-07 | 6.26e-06 | 5.65e-06 | 5.65e-06 | 4.68E + 00 minutes | 4.65e-05 | 8.50E- 03 | 3.5e-06 | 1460 | – | – | – | – | – | –
2 | Oc1c(CCc2ccc(F)cc2)c(C2CC2)nn1-c1nc2cc(Cl)ccc2[nH]1 [Compound I-170, 1-(5-chloro-1H-1,3-benzodiazol-2-yl)-3-cyclopropyl-4-[2-(4-fluorophenyl)ethyl]-1H-pyrazol-5-ol] | 67.1 | 67.1 | 67.1 | 98.8 | 98.8 | – | 1.25e-08 | 1.25e-08 | 1.25e-08 | 8.01E + 02 minutes | 1.99e-06 | 2.34E- 02 | 4.9e-07 | 2.87 | – | – | – | – | – | –
3 | CC(C)(C)OC(=O)N1CCC(CCc2c(-c3cccc(S(C)(=O)=O)c3)nn(-c3nc4ccccc4[nH]3)c2O)CC1 [Compound I-210, tert-butyl 4-{2-[1-(1H-1,3-benzodiazol-2-yl)-5-hydroxy-3-(3-methanesulfonylphenyl)-1H-pyrazol-4-yl]ethyl}piperidine-1-carboxylate] | 95.4 | 95.4 | 95.4 | 83.7 | 83.7 | 8.86e-07 | 4.56e-06 | 4.56e-06 | 4.56e-06 | 1.06E + 01 minutes | 8.12e-06 | 5.18E- 03 | 4.31e-06 | 709 | – | – | – | – | – | –
4 | CC(C)(C)OC(=O)N1CCC(c2nn(-c3nc4ccc(Cl)cc4[nH]3)c(O)c2CCc2ccc(F)cc2)CC1 [Compound I-216, tert-butyl 4-[1-(5-chloro-1H-1,3-benzodiazol-2-yl)-4-[2-(4-fluorophenyl)ethyl]-5-hydroxy-1H-pyrazol-3-yl]piperidine-1-carboxylate] | 100 | – | 176 | 87.1 | 87.1 | 1.24e-07 | 8.71e-12 | 8.71e-12 | – | 4.71E + 05 minutes | 8.29e-07 | 1.60E- 02 | – | – | Not active | – | – | – | – | –
5 | Oc1c(CCc2ccc(F)cc2)c(C2CC2)nn1-c1nc2cccnc2[nH]1 [Compound I-308, 3-cyclopropyl-4-[2-(4-fluorophenyl)ethyl]-1-{3H-imidazo[4,5-b]pyridin-2-yl}-1H-pyrazol-5-ol] | 61.4 | 61.4 | 61.4 | 100 | 100.1 | 9.41e-07 | 4.06e-06 | 4.06e-06 | 4.06e-06 | 5.81E + 00 minutes | – | 6.06E- 03 | 2.91e-06 | 3850 | – | 2.21e-06 | – | – | – | –
6 | Oc1c(CCc2ccc(F)cc2)c(-c2ccc(C(F)(F)F)cc2)nn1-c1cc(C(F)(F)F)n[nH]1 [Compound I-601, 4-[2-(4-fluorophenyl)ethyl]-5′-(trifluoromethyl)-3-[4-(trifluoromethyl)phenyl]-2′H-[1,3′-bipyrazol]-5-ol] | 67.6 | 67.6 | – | 100 | 101.3 | 1.72e-06 | 2.64e-05 | – | 8.96e-09 | 5.59E + 00 minutes | – | 4.19E- 02 | 4.55e-05 | 22000 | – | – | 67.6 | 8.96e-09 | 2.64e-05 | ≤ 10
7 | CC(C)(O)C(=O)N1CCC(CCc2c(C3CC3)nn(-c3nc4cc(Cl)ccc4[nH]3)c2O)CC1 [Compound I-712, 1-(4-{2-[1-(5-chloro-1H-1,3-benzodiazol-2-yl)-3-cyclopropyl-5-hydroxy-1H-pyrazol-4-yl]ethyl}piperidin-1-yl)-2-hydroxy-2-methylpropan-1-one] | 52.3 | 52.6 | 52.6 | 100 | 104.4 | 6.85e-08 | 1.99e-08 | 1.99e-08 | 1.99e-08 | 7.54E + 02 minutes | 1.03e-05 | 1.07E- 02 | 5.9e-09 | 2.19 | – | – | – | – | – | –
8 | CC(=O)N1CCC(Cc2c(-c3ccc(C(F)(F)F)cc3)nn(-c3nc4ccccc4[nH]3)c2O)CC1 [Compound I-720, 1-(4-{[1-(1H-1,3-benzodiazol-2-yl)-5-hydroxy-3-[4-(trifluoromethyl)phenyl]-1H-pyrazol-4-yl]methyl}piperidin-1-yl)ethan-1-one] | 92.2 | 92.2 | 92.2 | 71.4 | 71.4 | 1.19e-06 | 1.81e-06 | 1.81e-06 | 1.81e-06 | 1.32E + 00 minutes | – | 2.80E- 03 | – | 21.8 | – | – | – | – | – | –
9 | CC(C)OC(=O)N1CCC(c2nn(-c3nc4ccccc4[nH]3)c(O)c2CCC2CCOCC2)CC1 [Compound I-722, propan-2-yl 4-[1-(1H-1,3-benzodiazol-2-yl)-5-hydroxy-4-[2-(oxan-4-yl)ethyl]-1H-pyrazol-3-yl]piperidine-1-carboxylate] | – | 53.4 | 53.4 | – | 86.8 | 2.24e-06 | – | 5.49e-06 | 5.49e-06 | – | 7.2e-06 | – | 1.28e-07 | 4900 | – | – | – | – | – | –
10 | CN(C)S(=O)(=O)N1CCC(c2nn(-c3nc4ccccc4[nH]3)c(O)c2CCc2ccc(F)cc2)CC1 [Compound I-746, 4-[1-(1H-1,3-benzodiazo1-2-y1)-4-[2-(4-fluorophenyl)ethyl]-5-hydroxy-1H-pyrazol-3-yl]-N,N-dimethylpiperidine-1-sulfonamide] | – | 194 | 194 | – | 101.6 | 7.96e-07 | – | – | – | – | – | – | 6.84e-06 | 49.3 | – | – | – | – | – | –
